Measurements from patent US4177269A, “Novel 17-esters of 17α-hydroxy gestogens, compositions containing such compounds, processes for their preparation and methods of treatment therewith” (Aktiebolaget Leo, priority 1976, dated 1979).

Assays:
[1] = test system: Ehrlich ascites tumour, ELD hyperdiploid; experiment: Ehrlich ascites tumour, ELD hyperdiploid (46 chromosomes), growth inhibition in mice; assay type: in vivo, SPF NMRI mice; conditions: 100 mg/kg, one i.p. injection
Method in brief: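 SPF NMRI mice implanted i.p. with 2 × 10^6 ELD hyperdiploid Ehrlich ascites cells, given one i.p. injection the day after implantation. Animals killed on day 8; tumour weights compared with controls.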

[2] = target: T1, rabbit uterus cytosol progesterone receptor (Oryctolagus cuniculus, UniProt P06186); experiment: Relative affinity to rabbit uterus cytosol progesterone receptor (3H-progesterone competition); assay type: binding; conditions: compared to progesterone; 50% competition with 3H-progesterone; 16-18 hours at 4° C.
T1 construct: One ml portions of the supernatant (rabbit uterus cytosol) were pipetted into small centrifuge tubes of glass; from tissue; host or cells: uterus cytosol (105,000×g supernatant) of female rabbits pretreated with polyestradiol phosphate
T1 sequence (P06186 1-930): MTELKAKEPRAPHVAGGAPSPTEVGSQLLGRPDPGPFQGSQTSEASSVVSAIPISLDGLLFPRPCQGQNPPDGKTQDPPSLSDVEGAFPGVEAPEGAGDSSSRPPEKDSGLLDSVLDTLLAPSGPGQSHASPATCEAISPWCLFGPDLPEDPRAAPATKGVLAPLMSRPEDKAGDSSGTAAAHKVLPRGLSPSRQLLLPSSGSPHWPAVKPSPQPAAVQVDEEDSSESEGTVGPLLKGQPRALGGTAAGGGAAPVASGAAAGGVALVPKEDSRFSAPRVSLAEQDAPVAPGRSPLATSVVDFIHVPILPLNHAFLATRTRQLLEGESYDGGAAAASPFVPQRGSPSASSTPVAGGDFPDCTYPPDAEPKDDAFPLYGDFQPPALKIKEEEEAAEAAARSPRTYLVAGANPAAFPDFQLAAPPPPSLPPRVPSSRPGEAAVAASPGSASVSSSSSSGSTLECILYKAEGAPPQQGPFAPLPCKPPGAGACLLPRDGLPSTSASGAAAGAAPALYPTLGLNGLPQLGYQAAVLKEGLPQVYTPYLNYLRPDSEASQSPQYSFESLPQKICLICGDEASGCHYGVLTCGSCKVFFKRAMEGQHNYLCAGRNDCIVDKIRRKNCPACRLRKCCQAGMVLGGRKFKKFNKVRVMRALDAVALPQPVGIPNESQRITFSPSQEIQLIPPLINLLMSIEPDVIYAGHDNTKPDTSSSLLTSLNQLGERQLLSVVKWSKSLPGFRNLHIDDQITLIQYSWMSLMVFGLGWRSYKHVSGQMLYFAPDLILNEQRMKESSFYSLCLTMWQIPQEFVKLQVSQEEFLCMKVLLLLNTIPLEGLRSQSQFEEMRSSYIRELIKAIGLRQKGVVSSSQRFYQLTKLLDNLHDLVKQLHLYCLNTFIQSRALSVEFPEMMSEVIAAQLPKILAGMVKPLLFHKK
Experimental: This example illustrates the compound's relative affinity to rabbit uterus cytosol progesterone receptor compared with progesterone. The method used for this purpose is a modification of methods already described by Kontula, K. et al. (Acta Endocrinol. 78 (1975) 574) and Terenius, L. (Steroids 23 (1974) 909) among others.
Female rabbits (3-4 pounds) from Knut Larsen, Uddevalla, Sweden, were injected i.m. with 1 mg Estradurin (polyestradiol phosphate, 1 mg/ml saline, AB Leo, Sweden). After one week, the animals were killed and the uteri were immediately removed, chilled and cut free from connective tissues. All the following operations were performed at 0°-4° C. The uteri were cut into small pieces and washed several times with 3 vol. of buffer at pH 7.4 containing 50 MM TRIS-HCl, 1.5 mM EDTA, 3 mM NaN3, 2 mM dithiothreitol, and 25% glycerol (by vol.). The tissue was homogenized in the same buffer (3 vol.) with four 15-s bursts at rheostat setting 36-37 of an Ultra Turrax (Janke and Kunkel KG, Staufen, The Federal Republic of Germany). The homogenate was centifuged in a Sorvall GLC-2 centrifuge for 15 min at 600×g. The supernatanate was recentrifuged at 105,000×g for 60 min in a Beckman ultracentrifuge model LB-65-B with rotor SW 56.
One ml portions of the supernatant (rabbit uterus cytosol) were pipetted into small centrifuge tubes of glass and were kept at -70° C. until used. The protein content was determined by the method of Lowry (J. Biol. Chem. 193 (1951) 265).
10.0 mg of each compound was dissolved in 10.0 ml 99.5% ethanol. 100 μl of this standard solution was diluted to 5.0 ml ethanol/glycerol 1:1 (v/v). The ethanol was evaporated by blowing air at 40° C. on the solution. The volume was then adjusted to 5.0 ml by adding buffer without glycerol.
The compounds were diluted with glycerol/buffer 1:1 to final concentrations between 10^-8 -10^-5 M in total 300 μl incubation media. 100 μl of each compound and of each dilution were incubated in small centrifuge tubes (2 ml) together with 100 μl (10 pg) ^3 H-progesterone (1,2,6,7-3H-progesterone, 47.8 Ci/mMol, The Radiochemical Centre, Amersham, England) and 100 μl cytosol adjusted with buffer to a final concentration of about […]. The incubations were carried out for 16-18 hours at 4° C.
The separation of bound from free radioactivity was carried out at 0° C. using the dextran coated charcoal technique (DCC). To each incubation tube was added 0.5 ml DCC-suspension (0.05% dextran-70, Pharmacia, Uppsala, Sweden and 0.5% Norit A, Sigma, Saint Louis, Missouri, U.S.A.) The tubes were agitated 2-3 times during 10 minutes whereupon they were centrifuged at 100×g for five minutes. The supernatantes were decanted directly into Scintillation vials (polyethene, Packard) containing 10 ml InstaGel (Packard). The radioactivity was counted in a Philip's liquid scintillation spectrometer Model PW 4510/00 with external standard and automatic quenching correction.
To incubation tubes were added 100 μl cytosol, 100 μl ^3 H-progesterone (10 pg) and 100 μl of different dilutions of non-radioactive progesterone in glycerol/buffer 1:1 ranging from 0-10^4 pg/100 μl. The tubes were incubated parallel with the compounds described above. The radioactivity was calculated by substracting the counted radioactivity in the incubation tubes with the radioactivity counted in incubations tubes in which the cytosol was replaced with buffer (100 μl).
The concentration of non-radioactive progesterone [P]i which competes for 50% of bound radioactive progesterone was calculated from the standard curve constructed [B] i/[B] o=0.5 where [B]i is the bound radioactivity at different concentrations of non-radioactive progesterone and [B]o is the bound radioactivity at progesterone concentration zero.
In the same manner, curves were constructed for each compound X and the concentration for each compound which competes for 50% with bound ^3 H-progesterone ([X]50) was calculated. […]

Structure (SMILES): CC(=O)[C@@]1(OC(=O)COC(=O)c2ccc(C)c(N(CCCl)CCCl)c2)CC[C@H]2[C@@H]3CCC4=CC(=O)CC[C@]4(C)[C@H]3CC[C@@]21C [Compound 3:7, 17α-/3-(N,N-bis(2-chloroethyl)amino)-4-methylbenzoyloxyacetoxy/pregn-4-ene-3,20-dione]
- Mortality [1]: 0/12
- Tumour weight Treated/Control ([1]; 8th day): 2%
- relative binding affinity (RBA) [2]: 1.8%
